Values quoted from earlier work as cited in patent publication US20050070607A1, “N-acetylcysteine compositions and methods for the treatment and prevention of cysteine/glutathione deficiency in diseases and conditions” (priority 2003, published 2005).
Read-outs that look alike come from different tables or passages of the source.

Assays:
[1] = tested on: Hepatic transplant patients; conditions: oxygen delivery and consumption, base deficit; 150 mg/kg for 15 min; 12.5 mg/kg for 4 h; n 50; 5 hours; Bromley 1995[19]
[2] = tested on: Malnourished children; conditions: GSH synthesis rate and concentration; 0.5 mmol per kg per day; placebo alanine; n 32; 50 days; Badaloo 2002[54]
[3] = tested on: Exercise
[4] = tested on: Alzheimer's Disease; conditions: MMSE, ADL and other psychometric tests; 50 mg/kg/day; n 47; 24 weeks; Adair 2001[60]
[5] = tested on: COPD subjects
[6] = tested on: cardiac risk patients; conditions: oxygen consumption, cardiac index, ST-depression during brief hyperoxia; 150 mg/kg IV; n 30; 30 min; Spies 1996[11]
[7] = tested on: Hyperoxic ventilation; conditions: whole body oxygen uptake, oxygen extraction ratio, gastric intramucosal pH; IV over 15 min; n 38; 72 hours; Reinhart 1995[266]
[8] = tested on: severe malaria
[9] = tested on: influenza or influenza-like episodes; conditions: frequency and severity of episodes, elderly and chronic non-respiratory disease; 1200 mg/day po; n 262; 6 months; De Flora 1997[46]
[10] = tested on: septic shock patients
[11] = tested on: patients with high plasma Lp(a); conditions: plasma homocysteine; Lp(a) >0.3 g/l; 4000 mg daily po; n 11; 14 days; Wiklund 1996[277]
[12] = tested on: Stable angina and nitrate tolerance
[13] = tested on: non-insulin dependent diabetic (NIDDM) patients
[14] = tested on: colonic crypt epithelium of human volunteers who previously had adenomatous polyps; conditions: Colon cancer; proliferative index; 800 mg NAC daily po; n 64; 12 weeks; Estensen 1999[55]
[15] = tested on: Contrast-induced nephropathy (CIN)
[16] = tested on: Smoking
[17] = tested on: Sjogren's syndrome; conditions: ocular soreness, ocular irritability, halitosis, daytime thirst; 200 mg daily; n 26; 6 weeks; Walters 1986[56]
[18] = tested on: patients with polycystic ovary syndrome; conditions: circulating insulin levels and insulin sensitivity; 1.8-3 g daily depending on weight; n 33; 6 weeks; Fulghesu 2002[20]
[19] = compared with the stable cysteine disulfide
[20] = tested on: acute lung injury
[21] = tested on: patients with unstable angina pectoris
[22] = tested on: Chronic blepharitis; conditions: tear film quality (FBUT, mucous fern pattern); 300 mg/day po; n 40; 4 months; Yalcin 2002[57]
[23] = tested on: normal subjects breathing against high inspiratory loads; conditions: development of diaphragm fatigue; 150 mg/kg IV; n 4; 3 weeks; Travaline 1997[37]

CC(=O)N[C@@H](CS)C(=O)O [NAC, N-acetylcysteine]
Treatment effect [1]: Beneficial | Treatment effect [2]: Beneficial | Beneficial effects ([3]; frail geriatric patients, knee extensor strength, plasma TNF, 1800 mg daily, n 44, 6 weeks, Hauer 2003[59]): Beneficial | Beneficial effects ([3]; intense, intermittent exercise, reduced and oxidized GSH, 125 mg/kg/hr for 15 min, then 25 mg/kg/hr, n 8, Medved 2003[58]): Beneficial | Beneficial effects ([3]; prolonged submaximal exercise, well trained individuals, performance, 125 mg/kg/hr for 15 min, then 25 mg/kg/20 min, Medved 2004[286]): Beneficial | Beneficial effects [4]: Beneficial | Beneficial effects ([5]; hydrogen peroxide formation in the airways, oral 600 mg fizzy, n 44, 12 months, Kasielski 2001[210]): Beneficial | Beneficial effects ([5]; mucus viscosity, effective cough, clinical symptoms, 600 mg, n 60, 10 days, Verstraeten 1979[39]): Beneficial | Beneficial effects ([5]; quadriceps endurance, exercise induced oxidative stress, 1800 mg for 4 days and 600 mg the day of the test, n 9, Koechlin 2004[278]): Beneficial | Beneficial effects [6]: Beneficial | Treatment effect [7]: Beneficial | time for elevated serum lactate levels to return to normal vs placebo ([8]; 300 mg/kg intravenously over 20 hours, 30 subjects [51]): twice as quickly | Beneficial effects ([8]; quinine-treated malaria, serum lactate, 300 mg/kg IV, n 30, 20 hours, Watt 2002[51]): Beneficial | Beneficial effects [9]: Beneficial | Beneficial effects ([10]; Cardiac performance, MAP, cardiac index, left ventricular stroke work index, early administration 150 mg/kg over 15 min, 50 mg/kg over next 4 hrs, 100 mg/kg over next 24 hrs, n 20, 48 hours, Peake 1996[281]): Adverse | Beneficial effects ([10]; hepatosplanchnic flow and function, 150 mg/kg over 15 min before 12.5 mg/kg/hr for 90 min, n 60, 2 hours, Rank 2000[44]): Beneficial | Beneficial effects ([10]; respiratory function, ICU stay, IL-8, 150 mg/kg bolus then 50 mg/kg over 4 hr IV, n 22, 24 hours, Spapen 1998[43]): Beneficial | Beneficial effects ([10]; tissue oxygenation, survival of responders, 150 mg/kg for 15 min, then 12.5 mg/hr over 90 min IV, n 58, 2 hrs, Spies 1994[42]): Beneficial | Beneficial effects [11]: Beneficial | Beneficial effects ([12]; NAC + ISDN infusion, tolerance to antianginal effects, 2 g IV bolus, n 10, 30 hours, Boesgaard 1992[14]): Beneficial | Beneficial effects ([12]; NAC + isosorbide dinitrate (ISDN), ST segment depression, 2400 mg daily po, n 7, 8 days, Boesgaard 1991[13]): Beneficial | Beneficial effects ([12]; NAC + isosorbide-5-mononitrate, total exercise time, 4800 mg po, n 10, 24 hours, Svendsen 1989[12]): Beneficial | Beneficial effects ([13]; erythrocyte GSH, GSH:GSSG ratio, plasma soluble VCAM-1, 1200 mg/day po, n 15, 1 month, De Mattia 1998[21]): Beneficial | erythrocyte GSH concentration and rate of its synthesis ([13]; type 2 diabetics, two weeks of dietary supplementation, Jahoor ongoing study [197]): significant increases | Treatment effect [14]: Beneficial | RR (incidence of contrast-induced nephropathy) ([15]; 400 mg PO bid for 2 days, n 121, Shyu 2002[8]): contrast-induced nephropathy (RR 0.13) | RR (incidence of post-catheterization nephropathy) ([15]; 600 mg PO bid, n 54, Diaz-Sandoval 2002[7]): 0.21) in patients with stable chronic renal | relative risk, RR (reduction in renal function induced by iopromide) ([15]; 600 mg PO bid, n 83, Tepel[3-5]): contrast agent (relative risk, RR 0.10) | reduction in the incidence of acute renal failure ([15]; 83 patients with baseline renal impairment, computed tomography with nonionic low-osmolality contrast agent, Tepel[3-5]): 90% | Beneficial effects ([15]; chronic renal insufficiency, iopromide, 600 mg PO bid with hydration, n 83, 2 days, Tepel 2000, 2001, 2003[3-5]): Beneficial | incidence of CIN by 48 hours ([15]; control 6.4%, 1500 mg for 4 doses, Oldemeyer 2003[188]): both groups was low (NAC 8.2%, control | incidence of CIN at 48 hours ([15]; control 12%, 600 mg 4 times daily, Boccalandro 2003[187]): hours (NAC, 13%; control 12%) after | RR (contrast-induced deterioration in renal function) ([15]; coronary angiographic procedures, 600 mg PO bid, n 200, Kay 2003[6]): adverse effects (RR 0.32). Kay, 2003[6] | Beneficial effects ([15]; moderate chronic renal insufficiency, coronary angiographic procedures, 600 mg PO bid, n 200, 3 days, Kay 2003[6]): Beneficial | Beneficial effects ([15]; oxidative stress-mediated proximal tubular injury, 1200 mg daily, n 24, 4 days, Drager 2004[271]): Beneficial | Beneficial effects ([15]; serum creatinine > 1.2 mg/dL, elective coronary angiography, creatinine clearance at 24 and 96 hours, 1000 mg daily, n 49, 4 days, Efarti 2003[9]): Beneficial | Beneficial effects ([15]; serum creatinine >= 1.5 mg/dL, elective cardiac catheterization, 600 mg 5 doses, n 43, 3 days, MacNeil 2003[10]): Beneficial | Beneficial effects ([15]; stable chronic renal insufficiency, coronary angiography, 400 mg PO bid for 2 days, n 121, 7 days, Shyu 2002[8]): Beneficial | Beneficial effects ([15]; stable chronic renal insufficiency, elective cardiac catheterization, 600 mg PO bid, n 54, 2 days, Diaz-Sandoval 2002[7]): Beneficial | incidence of contrast nephropathy ([15]; subset receiving <140 mL contrast agent, from 8.5%, p=0.02, 183 patients [190]): 0% | development of CIN by 72 hours ([15]; vs 32.2% placebo, P = 0.046, 600 mg 5 doses, MacNeil 2003[10]): catheterization (4.8% vs 32.2%, P = | Beneficial effects ([16]; formation of lipophilic-DNA adducts, 1200 mg/day po, n 41, 6 months, VanShooten 2002[35]): Beneficial | Beneficial effects ([16]; mucus clearance, 600 mg/day, n 12, 30 days, Olivieri 1985[36]): Beneficial | Beneficial effects [17]: Beneficial | Beneficial effects [18]: Beneficial | solubility relative to cystine [19]: much more soluble | Beneficial effects ([20]; RBC GSH, days of acute lung injury, cardiac index, NAC 70 mg/kg q 8 hr IV, OTZ 63 mg/kg q 8 hr IV, n 48, 10 days, Bernard 1997[222]): Beneficial | Beneficial effects ([20]; elastase activity, pretreatment 72 mg/kg bolus, 72 mg/kg over 12 hours IV, n 18, 12 hours, De Backer 1996[214]): Beneficial | Beneficial effects ([20]; mild-to-moderate ALI, systemic oxygenation, need for ventilatory support, 40 mg/kg/day IV, n 61, 3 days, Suter 1994[211]): Beneficial | Beneficial effects ([21]; NAC + nitroglycerin, incidence of acute myocardial infarction, 5 g IV, n 46, 6 hours, Horowitz 1988[175,176]): Beneficial | Beneficial effects ([21]; nitroglycerin + NAC with conventional therapy, outcome events, 600 mg po, n 200, 4 months, Ardissino 1997[177]): Beneficial | Beneficial effects [22]: Beneficial | Beneficial effects [23]: Beneficial
